From US12644143B2, “Method for the determination of antibiotic susceptibility through stimulated Raman metabolic imaging” (priority 2017, dated 2026)
Converted amounts (≈) assume the structure as drawn.

Experiments:
Type in all cases: cell-based
[1] = test system: E. faecalis 31970 (vancomycin susceptible enterococci, VSE); assay: MIC by conventional culture based method
[2] = test system: E. faecalis 31970 (vancomycin susceptible enterococci, VSE); assay: SRS metabolic imaging of glucose-d7 uptake (C-D signal) for AST; conditions: for susceptibility of E. faecalis 31970 based on metabolic imaging method: 20 μg/mL antibiotic; for C-D signal in SRS imaging versus control: E. faecalis 31970, 20 μg/mL antibiotic; for intensity of C-D component versus control: 1 hour
Procedure: (§1) The SRS imaging based method of the present disclosure can determine the susceptibility of bacteria to antibiotics within about […]. A bacteria solution for testing through SRS imaging and placement on the agarose gel pad can be prepared by cultivating bacteria in a broth, such as a Lysogeny broth (LB) (LB Broth, Sigma Aldrich) for about two hours to reach to log phase. The bacteria can then added in a ratio between about 0.1:100 to about a 10:100 ratio to 2 mL of various types of medium. In one exemplary embodiment, the ration can be about 1:100 to 2 ML of medium, such as a specialized medium. Some exemplary embodiments can use D2O medium or other specialized medium herein referred to as M9 medium wherein about a 2% glucose-d7 can be only carbon source. The M9 medium is developed and selected to maximize the signal within the C-D vibrational region. To measure the resistance of a given bacteria to an antibiotic, the antibiotic is added to the specialized medium to a concentration of about 20 μg/mL. After at least about 30 minutes of incubation about 500 μl of the sample is centrifuged, washed twice with purified water, and deposited to an agarose gel pad for imaging. An imaging setup of illustrated in FIG. 1A can be utilized to process the sample.
Referring now to FIG. 2A-D the method of the present disclosure can generally be performed in an exemplary method to determine effectiveness utilizing an antibiotic, such as vancomycin. Accordingly, the method can be utilized to examine the influence of antibiotics to the metabolic uptake of glucose-d7 by bacteria. Vancomycin susceptible (VSE) and Vancomycin resistant (VRE) enterococci E. faecalis can first be grown to a log phase by cultivating in LB medium for about 2 hours, then VSE and VRE can further be cultivated in M9 medium with about 2% glucose-d7 as the sole carbon source, respectively, with the addition of vancomycin to a final concentration of about 20 μg/mL (FIG. 2A). Other embodiments can include various types of carbon source as a sole carbon source or in combination with other carbon or nutrient sources. One exemplary embodiment can use a nutrient source of about 0-100% deuterium dioxide. Similarly, the carbon source can include a combination of deuterium dioxide and glucose-d7. This concentration was chosen because it is between the minimum inhibitory concentrations (MICS) of vancomycin to VSE (MIC is 1 μg/mL) and to VRE (MIC is >100 μg/mL). For control, VSE and VRE were cultivated in glucose-d7 containing medium without the addition of vancomycin (FIG. 2a). After 30 minutes (0.5 hours) to 3 hours incubation, each sample was centrifuged and washed twice in water, and then deposited on an agarose gel pad for SRS imaging.
(§2) To quantify the C-D content of the E. faecalis cells and the response of bacteria to the treatment of antibiotics, multivariate curve resolution (MCR) analysis is applied to retrieve the C-D component from hyperspectral SRS imaging data shown in FIGS. 3A-D. MCR is a bilinear model which decomposes the experimental data matrix that contains spectrum at each pixel into concentration maps and spectra of principle components. With an initial estimated spectrum of each component as the input, MCR is calculated and optimized iteratively using alternating least squares algorithm until convergence is reached. The output of MCR contains the concentration map and spectrum of each component. Referring now to FIG. 3A-D the spectra of glucose-d7, which represented the C-D component, and gel, which represented the background, were used as the input components. After MCR analysis, C-D component can be clearly separated from the background and utilized to quantify the contents of the collected SRS imaging data.
The MIC, defined as the lowest concentration of antibiotic that is able to inhibit the visible growth of bacteria in vitro, can be determined by our metabolic imaging method. […]

E. faecalis 31970 = test system: E. faecalis 31970
Procedure: (§3) To test the toxicity of glucose-d7 to bacteria, E. faecalis 31970 and 31972 were cultivated in custom-made M9 medium, one with normal glucose for control and the other with glucose-d7. The growth of bacteria was monitored by optical density (OD) measurement at 600 nm for up to 22 hours (FIG. 9). […] FIG. 9A illustrates OD measurement for vancomycin susceptible enterococci cultured in M9 medium with either 2% normal glucose or 2% glucose-d7, whereas FIG. 9B illustrates OD measurement for vancomycin resistant enterococci cultured in M9 medium with either 2% normal glucose or 2% glucose-d7.

E. faecalis 31972 = test system: E. faecalis 31972
Procedure: as §3

P. aeruginosa [3] = assay: conventional culture-based microdilution method; conditions: 20 μg/ml
Procedure: (§4) P. aeruginosa were cultivated in 70% D2O containing LB medium, with the addition of 20 μg/ml gentamicin or cefotaxime to determine the antibiotic effect on the metabolic activity of D2O in bacteria, and wherein it is suitable for use of rapid AST with SRS imaging. The susceptibility of P. aeruginosa were pre-determined to be susceptible to gentamicin and resistant to cefotaxime at this concentration using conventional culture-based microdilution method. […] This filamentary formation may also be observed when P. aeruginosa was treated with other β-lactam antibiotics 10.

P. aeruginosa [4] = assay: SRS imaging of D2O metabolic activity (C-D signal at 2162 cm-1); conditions: for C-D signal / metabolic activity of D2O in SRS imaging: 10 minutes to 3 hours; for average C-D signal intensity relative to about 65% of control threshold: all time points about 10 minutes to about 3 hours
Procedure: A 70% D2O containing LB medium was provided to cultivate bacteria, and used P. aeruginosa as a model to test whether the D2O metabolic activity in single bacterium can be monitored by SRS microscope. P. aeruginosa was separately cultivated in normal LB and 70% D2O containing LB medium for about 2 hours, and then centrifuged and washed in water to remove the culture medium. […] To image single bacterium, bacteria were further diluted and deposited on an agarose gel pad. […] The results were confirmed by SRS spectrum (FIG. 16C) obtained through temporal tuning of chirped pump and Stokes femtosecond pulses.
A time lapse of D2O metabolic activity can be carried out in single P. aeruginosa with femtosecond SRS imaging. P. aeruginosa was first cultivated in about 70% D2O containing LB medium for up to about 3 hours, at different time points, about 500 μl bacteria were centrifuged, washed and deposited on agarose gel pad for imaging. […] To view individual bacterium more clearly, the images in FIG. 18A were further zoomed in FIG. 18B.
as §4
The D2O metabolic activity of bacteria can be used to rapid differentiate the antibiotic susceptibility of bacteria and examined using the average C-D signal intensity of bacteria being compared between three groups shown in FIGS. 19C-H, the control without antibiotics treatment (FIG. 18A), treated with gentamicin (FIG. 19A), and treated with cefotaxime (FIG. 19B). […] Therefore, the susceptibility of P. aeruginosa to gentamicin and cefotaxime can be determined in as short as about 10 minutes.
The SRS metabolic imaging method can determine the minimal inhibitory concentration (MIC) of antibiotics to bacteria and was done by cultivating P. aeruginosa in about 70% D2O containing LB medium for about 1 hour with the addition of gentamicin with serial diluted concentration. […] With the 65% intensity threshold, the MIC was determined to be about 8 μg/ml with SRS-based D2O metabolic imaging method, which is consistent to the result determined by the conventional culture-based method.

[5] = test system: S. aureus strain susceptible to oxacillin; assay: MIC of oxacillin; conditions: Staphylococcus aureus
[6] = test system: S. aureus strain resistant to oxacillin; assay: SRS metabolic imaging of deuterated glucose (C-D peak); conditions: 1.3 μg/ml oxacillin, 0.5 h, glucose-d2 containing medium
Procedure: (§5) The metabolic activity of glucose-d2 can be observed in single bacterium cultivated in glucose-d2 containing medium for 0.5 h by SRS imaging (FIG. 11B). […] Therefore, susceptible and resistant S. aureus can be determined in about 0.5 h.

[7] = test system: S. aureus strain susceptible to oxacillin; assay: as above; conditions: 1.3 μg/ml oxacillin, 0.5 h, glucose-d2 containing medium
Procedure: as §5

E. coli = test system: E. coli
Procedure: (§6) The toxicity of D2O was first tested on bacteria by measuring the growth in a D2O containing medium. Three types of bacteria (E. coli, S. aureus, and P. aeruginosa) were cultured at different concentrated D2O containing LB medium, and their growth were monitored with optical density (OD) measurement at about 600 nm.

P. aeruginosa [8] = test system: P. aeruginosa
Procedure: as §6

S. aureus = test system: S. aureus
Procedure: as §6

[9] = test system: vancomycin resistant (VRE) enterococci E. faecalis; assay: MIC by conventional culture based method; conditions: Enterococcus
[10] = test system: vancomycin resistant (VRE) enterococci E. faecalis; assay: SRS metabolic imaging of glucose-d7 uptake (C-D signal) for AST; conditions: for intensity of C-D component after MCR versus control: 20 μg/ml
Procedure: as §1, with “sample. […]” for “sample.”
as §2, with “The output of MCR contains the concentration map and spectrum of each component. Referring now to FIG. 3A-D the spectra of glucose-d7, which represented the C-D component, and gel, which represented the background, were used as the input components.” left out, “data. […]” for “data.”

[11] = Enterococcus faecalis, conventional culture based method, E. faecalis 31970 (VSE), read-out: MIC

## CCCCCCCCCC(=O)N[C@@H](Cc1c[nH]c2ccccc12)C(=O)N[C@H](CC(N)=O)C(=O)N[C@@H](CC(=O)O)C(=O)N[C@@H]1C(=O)NCC(=O)N[C@@H](CCCN)C(=O)N[C@@H](CC(=O)O)C(=O)N[C@H](C)C(=O)N[C@@H](CC(=O)O)C(=O)NCC(=O)N[C@H](CO)C(=O)N[C@@H]([C@H](C)CC(=O)O)C(=O)N[C@@H](CC(=O)c2ccccc2N)C(=O)O[C@@H]1C [daptomycin]
[1]; [11]
  MIC: 32 µg/mL (≈ 19.7 µM)
[2]; 1 h
  susceptibility of E. faecalis 31970 based on metabolic imaging method: resistant

## [2H]C(=O)[C@]([2H])(O)[C@@]([2H])(O)[C@]([2H])(O)[C@]([2H])(O)C([2H])([2H])O [glucose-d7]
E. faecalis 31970
  toxicity to bacterial growth: no toxicity
E. faecalis 31972
  toxicity to bacterial growth: no toxicity

## CO/N=C(\C(=O)N[C@@H]1C(=O)N2C(C(=O)O)=C(COC(C)=O)CS[C@H]12)c1csc(N)n1 [cefotaxime]
P. aeruginosa [3]
  susceptibility of P. aeruginosa pre-determined by microdilution: resistant
P. aeruginosa [4]; 20 μg/ml, 70% D2O LB medium
  bacterial morphology on cultivation with antibiotic: tends to form long rods
  C-D signal / metabolic activity of D2O in SRS imaging: active metabolic activity of D2O
P. aeruginosa [4]; 20 μg/ml
  average C-D signal intensity relative to about 65% of control threshold: always above the threshold

## Cc1onc(-c2ccccc2)c1C(=O)N[C@@H]1C(=O)N2[C@@H]1SC(C)(C)[C@@H]2C(=O)O [oxacillin]
[5]
  MIC: 0.0625 µg/mL
[6]
  C-D peak versus untreated control: no significant change
[7]
  C-D peak versus untreated control: reduction in C-D peak

## CC(=O)NC[C@H]1CN(c2ccc(N3CCOCC3)c(F)c2)C(=O)O1 [linezolid]
[1]; [11]
  MIC: 2 µg/mL (≈ 5.93 µM)
[2]; 1 h
  susceptibility of E. faecalis 31970 based on metabolic imaging method: susceptible
  C-D signal in SRS imaging versus control: significant reduction

## gentamycin
[1]; conventional culture based method, E. faecalis 31970 (VSE)
  MIC: >256 µg/mL
[2]; 1 h
  susceptibility of E. faecalis 31970 based on metabolic imaging method: resistant
P. aeruginosa [3]
  susceptibility of P. aeruginosa pre-determined by microdilution: susceptible
P. aeruginosa [4]; 20 μg/ml, 70% D2O LB medium
  C-D signal / metabolic activity of D2O in SRS imaging: significantly reduced
P. aeruginosa [4]; 20 μg/ml
  average C-D signal intensity relative to about 65% of control threshold: always below the threshold
P. aeruginosa [4]; about 1 hour, 70% D2O LB medium
  gentamicin concentration at which D2O metabolic activity was inhibited: ≥ 8 µg/mL
P. aeruginosa [4]; about 1 hour, 70% D2O LB medium, 65% intensity threshold
  MIC with SRS-based D2O metabolic imaging method: about 8 μg/ml

## CC[C@H]1OC(=O)[C@H](C)[C@@H](O[C@H]2C[C@@](C)(OC)[C@@H](O)[C@H](C)O2)[C@H](C)[C@@H](O[C@@H]2O[C@H](C)C[C@H](N(C)C)[C@H]2O)[C@](C)(O)C[C@@H](C)C(=O)[C@H](C)[C@@H](O)[C@]1(C)O [erythromycin]
[1]; [11]
  MIC: > 256 µg/mL
[2]; 1 h
  susceptibility of E. faecalis 31970 based on metabolic imaging method: resistant

## [2H]O[2H] [D2O]
E. coli
  toxicity to growth: did not show significant toxicity
P. aeruginosa [8]
  growth of P. aeruginosa: initially slowed down
S. aureus
  toxicity to growth: did not show significant toxicity

## CN[C@H](CC(C)C)C(=O)N[C@H]1C(=O)N[C@@H](CC(N)=O)C(=O)N[C@H]2C(=O)N[C@H]3C(=O)N[C@H](C(=O)N[C@H](C(=O)O)c4cc(O)cc(O)c4-c4cc3ccc4O)[C@H](O)c3ccc(c(Cl)c3)Oc3cc2cc(c3O[C@@H]2O[C@H](CO)[C@@H](O)[C@H](O)[C@H]2O[C@H]2C[C@](C)(N)[C@H](O)[C@H](C)O2)Oc2ccc(cc2Cl)[C@H]1O [vancomycin]
[1]; Enterococcus faecalis
  MIC: 1 µg/mL (≈ 0.69 µM)
[9]
  MIC: > 100 µg/mL
[2]; 1 h
  susceptibility of E. faecalis 31970 based on metabolic imaging method: susceptible
  C-D signal in SRS imaging versus control: significant reduction
[2]; 20 μg/mL vancomycin, 30 minutes in glucose-d7 medium, fraction of control
  intensity of C-D signal for individual VSE relative to control group: about ⅓
[2]; Enterococcus faecalis, 1 h, read-out: MIC determined by metabolic imaging method
  MIC: 2 µg/mL
[2]; VSE, 1 μg/mL vancomycin
  intensity of C-D component versus control: did not reduce
[2]; VSE, 2 μg/mL or higher vancomycin
  intensity of C-D component versus control: significantly reduced
[2]; VSE, 20 μg/mL vancomycin, 30 minutes
  normalized SRS spectra, signal intensity in C-D region versus control: reduced the signal intensity
[2]; VSE, 20 μg/ml, 0.5, 1 and 3 h (p 2.2×10^−13, 2.0×10^−11, 3.9×10^−15)
  intensity of C-D component after MCR versus control: significantly reduced
[10]; 20 μg/mL vancomycin, 30 minutes
  normalized SRS spectra, signal intensity in C-D region with and without treatment: remain the same
[10]; 0.5 to 3 h
  intensity of C-D component after MCR versus control: did not significantly reduce
[10]; 3 h (p-value 5×10^−4)
  intensity of C-D component after MCR versus control: higher intensity of C-D component than the control group
